PMC9697131, “Agomelatine, Ketamine and Vortioxetine Attenuate Energy Cell Metabolism—In Vitro Study” (International Journal of Molecular Sciences, 2022)
Where two headings read alike, the source gives them in different places.

How the values were obtained:
citrate synthase (CS) = target: T1, citrate synthase (CS) (Sus scrofa, UniProt P00889); experiment: Citrate synthase activity; format: biochemical, pig; settings: mean, N=3
T1 construct: Frozen mitochondria (stored at −70 °C) were used for the following enzyme activity measurements: ETC complexes, citrate synthase (CS) and malate dehydrogenase (MDH) activity; from tissue; host or cells: pig brain cortex, purified mitochondrial fraction (frozen, sonicated)
T1 sequence (P00889 28-464): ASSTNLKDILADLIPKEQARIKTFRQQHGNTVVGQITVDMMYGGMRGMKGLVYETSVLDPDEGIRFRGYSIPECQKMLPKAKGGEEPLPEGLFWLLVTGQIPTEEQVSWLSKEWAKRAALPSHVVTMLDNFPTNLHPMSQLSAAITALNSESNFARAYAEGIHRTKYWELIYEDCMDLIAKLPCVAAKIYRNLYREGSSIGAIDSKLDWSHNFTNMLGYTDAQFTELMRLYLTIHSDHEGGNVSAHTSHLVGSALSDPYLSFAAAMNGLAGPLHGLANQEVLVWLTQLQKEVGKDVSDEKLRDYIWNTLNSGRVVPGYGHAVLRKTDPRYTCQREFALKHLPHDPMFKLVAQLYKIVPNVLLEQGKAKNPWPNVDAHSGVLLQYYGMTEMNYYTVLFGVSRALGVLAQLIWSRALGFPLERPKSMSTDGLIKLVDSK
Procedure: (§1) Pig brains were obtained from a slaughterhouse. Mitochondrial fraction isolation and purification from brain cortex were performed as previously described. Briefly, grey matter from pig brains was homogenized and crude mitochondrial fraction was isolated and then centrifuged on the sucrose gradient to obtain purified mitochondrial fraction. The freshly purified mitochondria were kept on ice until the assays were performed and were used for measurements of the mitochondrial oxygen consumption rate, measurements of ATP and ROS formation. Frozen mitochondria (stored at −70 °C) were used for the following enzyme activity measurements: ETC complexes, citrate synthase (CS) and malate dehydrogenase (MDH) activity.
Ultrasonication and incubation of mitochondria with the tested drugs for 30 min at 30 °C was performed before measurement with a corresponding drug-free control (DMSO) for every measurement. Mitochondrial enzymes activities were determined spectrophotometrically as absorbance using a GENESYS 180 UV-Vis Spectrophotometer (Thermo Fisher Scientific, Waltham, MA, USA).
The reaction mixture consisted of Triton, Tris, 5,5′-dithiobis-(2-nitrobenzoic) acid and acetyl coenzyme A. The reaction was started by adding oxaloacetate and the CS activity was measured by detecting the color change of 5,5′-dithiobis-(2-nitrobenzoic) acid at 412 nm with a duration of 3 min. […]

[1] = tested on: complex I-linked ATP content, pig brain mitochondria; experiment: Complex I-linked ATP content, bioluminescence; format: biochemical; settings: for complex I-linked ATP content (relative to control = 100%): mean ± SD
Procedure: as §1
The following protocol has been modified and optimized. An ATP Bioluminescence Assay Kit CLS II was used to measure ATP content and kinetics. The luminescence was measured using FluoroMax-3 (Jobin Yvon, Edison, NJ, USA) at 562 nm. Standard curve for ATP determination was prepared from ATP standard in the range from 0 to 600 nM. Tested substances were used at final concentrations 10, 50 and 100 µM, with drug-free control (DMSO) for each measurement and the final protein concentration was 50 µg/mL.
Mitochondria were incubated for 30 min on ice with the MiR05 buffer, tested substances and mitochondria. Consequently, the substrate mix was added, consisting of 5 mM malate and 5 mM pyruvate (for complex I) or 5 mM succinate and 1 μM rotenone (for complex II), 60 μM ADP and 0.75 mM MgCl2·6H2O and incubated for 30 min in 30 °C. Reaction was stopped by heating vials at 100 °C for 2 min. Background luminescence was measured. In total, 230 µL of luciferase reagent was added and total ATP° content for complex I and complex II+III was determined by measuring the luminescence for 1 min. Drug-free control (DMSO) was part of each measurement.

[2] = tested on: total H2O2 content, pig brain mitochondria; experiment: Hydrogen peroxide production, Amplex Red; format: biochemical; settings: for total H2O2 content (relative to control = 100%): mean ± SD
Procedure: as §1
Hydrogen peroxide formation was determined using an Amplex Red Hydrogen Peroxide/Peroxidase Assay Kit. The reaction mixture consisted of 27 mM HEPES (pH 7.4), 114 mM sucrose, 100 mM KCl, 1.3 mM K2HPO4, 5 mM malate, 5 mM pyruvate, 1 µM rotenone, 10 mM succinate, 0.75 mM MgCl2, […], 15 µM Amplex Red and horseradish peroxidase 0.09 U/ML. […] The reaction was stopped by the addition of antimycin A. The standard curve for hydrogen peroxide was prepared using H2O2 standard.

MAO-A = target: T2, MAO-A (Sus scrofa, UniProt Q6Q2J0); experiment: MAO-A activity, radiolabeled [3H]serotonin substrate; format: biochemical, pig; settings: for MAO-A Inhibition (type): 0.1–300 µM; for MAO-A Hillslope / MAO-A Residual Activity: mean
T2 construct: from tissue; host or cells: pig brain mitochondria
T2 sequence (Q6Q2J0 1-527): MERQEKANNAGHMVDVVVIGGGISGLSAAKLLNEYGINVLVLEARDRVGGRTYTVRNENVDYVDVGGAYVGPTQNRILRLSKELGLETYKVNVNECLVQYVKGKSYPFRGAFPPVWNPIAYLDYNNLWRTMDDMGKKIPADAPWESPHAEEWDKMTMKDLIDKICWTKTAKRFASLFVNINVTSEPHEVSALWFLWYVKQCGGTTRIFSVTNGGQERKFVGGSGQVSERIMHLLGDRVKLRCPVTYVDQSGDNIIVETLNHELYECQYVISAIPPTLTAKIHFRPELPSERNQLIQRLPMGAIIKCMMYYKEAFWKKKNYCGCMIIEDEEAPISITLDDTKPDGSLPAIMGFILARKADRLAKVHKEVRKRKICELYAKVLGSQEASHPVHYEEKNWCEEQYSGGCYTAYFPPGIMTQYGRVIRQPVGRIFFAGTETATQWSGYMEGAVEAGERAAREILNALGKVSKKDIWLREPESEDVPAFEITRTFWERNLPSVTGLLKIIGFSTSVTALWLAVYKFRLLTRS
Procedure: as §1
Mitochondria in KH buffer at final concentration of 800 µg/mL were preincubated with the tested drugs in a final concentration range of 0.1–300 µM for 60 min at 37 °C. For each measurement, there was a corresponding drug-free control (DMSO). Radiolabeled substrates ([^3H]serotonin for MAO-A and [^14C]PEA for MAO-B) were added to initiate the reaction. The reaction was carried out at 37 °C for 20 min for MAO-A and for 1 min for MAO-B, and the reaction was stopped by hydrochloric acid. The radioactivity of the organic phases of the extracts were measured by liquid scintillation counting (LS 6000IC, Beckman Instruments, Inc., Fullerton, CA, USA).
The inhibition of respiration rate and MAO activity were analyzed by A four-parameter logistic regression with Prism software (GraphPad Software, San Diego, CA, USA) was used to analyze the respiratory rate inhibition and activity of MAO. […] The IC50 represents the drug concentration required to inhibit the difference between the baseline and the residual value of the mitochondrial oxygen flux or MAO activity by 50%.

[3] = mean ± SEM, 4 measurements, read-out: MAO-A IC50

SMILES	CS (% of Control) (citrate synthase (CS); 10 μM drug)	CS (% of Control) (citrate synthase (CS); 100 μM drug)	complex I-linked ATP content (relative to control = 100%) ([1]; 10 μM drug)	total H2O2 content (relative to control = 100%) ([2]; 10 μM drug)	MAO-A Inhibition (type) (MAO-A)	IC50 (MAO-A; [3])	MAO-A Hillslope (MAO-A; 4 measurements)	MAO-A Residual Activity (MAO-A; 4 measurements)	effect on complex I-linked ATP content (in words) ([1]; 10, 50 and 100 µM)	effect on total H2O2 production (in words) ([2]; 10, 50 and 100 µM)	IC50 (MAO-A)	complex I-linked ATP content (relative to control = 100%) ([1]; 100 μM drug)	total H2O2 content (relative to control = 100%) ([2]; 50 μM drug)	total H2O2 content (relative to control = 100%) ([2]; 100 μM drug)
COc1ccc2cccc(CCNC(C)=O)c2c1 [agomelatine]	108.8 % of Control	95.7 % of Control	106.4 ± 4.0%	130.1 ± 2.7%	partial	8.2 µM	3.40	0.190 rel.u.						
CNC1(c2ccccc2Cl)CCCCC1=O (stereo not shown) [ketamine]	107.3 % of Control	97.4 % of Control			partial		1.50	0.259 rel.u.	no significant effect	no statistically significant effect	10.4 µM			
Cc1ccc(Sc2ccccc2N2CCNCC2)c(C)c1 [vortioxetine]	109.3 % of Control	* 96.9 % of Control			partial	7.33 µM	1.76	0.109 rel.u.				119.0 ± 10.6%	124.5 ± 2.5%	85.4 ± 5.0%
